Where two headings read alike, the source gives them in different places. Marks after values point to notes of the source that are not given here.
What was measured:
[1] = test system: PTZ-induced seizures; experiment: PTZ model of generalised seizures (80 mg/kg PTZ); format: in vivo, Wistar rats; conditions: for Median severity: vehicle 4.25; for % no seizure: vehicle 12.5; for mortality rate: vehicle 44%, not significant
Experimental: Male Wistar rats (P24-29; 75-110 g) were used to assess the effects of the phytocannabinoid CBDV in the PTZ model of generalised seizures. Animals were habituated to the test environment, cages, injection protocol and handling prior to experimentation. Animals were housed in a room at 21° C. on a 12 hour light: dark cycle (lights on 0900) in 50% humidity, with free access to food and water.
Five 6 L Perspex tanks with lids were placed on a single bench with dividers between them. Closed-circuit television (CCTV) cameras were mounted onto the dividers to observe rat behaviour. Sony Topica CCD cameras (Bluecherry, USA) were linked via BNC cables to a low-noise PC via Brooktree digital capture cards (Bluecherry, USA). Zoneminder (http://www.zoneminder.com) software was used to monitor rats, start and end recordings and manage video files. In-house Linux scripts were used to encode video files into a suitable format for further offline analysis using The Observer (Noldus Technologies).
A range of doses of PTZ (50-100 mg/kg body weight) were used to determine the best dose for induction of seizures (see below). As a result, a dose of 80 mg/kg injected intra-peritoneally (IP; stock solution 50 mg/ml in 0.9% saline) were used to screen the CBDV.
On the day of testing, pure CBDV was administered via intra-peritoneal (i.p.) injection at doses of 50, 100 and 200 mg/kg alongside animals that were injected with a matched volume of the cannabinoid vehicle (2:1:17 ethanol:Cremophor: 0.9% w/v NaCl solution), which served as the negative control group. Animals were then observed for 1 hour, after which time they received an IP injection of 80 mg/kg PTZ. Negative vehicle controls were performed in parallel with cannabinoid-dosed subjects. After receiving a dose of PTZ, animals were observed and videoed to determine the severity of seizure and latency to several seizure behaviour types (see in vivo analysis, below). Animals were filmed for half an hour after last sign of seizure, and then returned to their cage.
Animals were observed during experimental procedures, but all analysis was performed offline on recorded video files using The Observer behavioural analysis software (Noldus, Netherlands). A seizure severity scoring system was used to determine the levels of seizure experienced by subjects (Pohl & Mares, 1987). All signs of seizure were detailed for all animals.
The latency (in seconds) from injection of PTZ to first myoclonic jerk (FMJ; score of 1), and to the animal attaining “forelimb clonus with tonic component and body twist” (score of 3.5) were recorded. FMJ is an indicator of the onset of seizure activity, whilst >90% of animals developed scores of 3.5, and so is a good marker of the development of more severe seizures. Data are presented as the mean±S.E.M. within an experimental group.
This is given as the median value for each experimental group based on the scoring scale below.
The percentage of animals within an experimental group that died as a result of PTZ-induced seizures. Note that the majority of animals that developed tonic-clonic seizures (scores of 4 and 5) died as a result, and that a score of 6 (death) automatically denotes that the animal also experienced tonic-clonic seizures.
This is given as the mean±S.E.M. for each experimental group.
For measures of latency and severity, one way analysis of variance (ANOVA) was performed on the four groups together (vehicle and 50, 100 and 200 mg/kg CBDV) to detect overall effects of CBDV (p≤0.05 considered significant).
Significant ANOVA results were followed by post hoc tests to test differences between vehicle and drug groups (Tukey's test, p≤0.05 considered significant).
Methodology as described in Example 2.
General methodology is as described in Example 2.
Three doses of THCV BDS were assessed against a concentration of PTZ known to induce moderate seizures in rats (70 mg/kg; see pilot, above). […]

[2] = target: CB1 receptor (Homo sapiens, UniProt P21554); conditions: cited from earlier work
CB1 receptor, sequence (P21554 whole entry): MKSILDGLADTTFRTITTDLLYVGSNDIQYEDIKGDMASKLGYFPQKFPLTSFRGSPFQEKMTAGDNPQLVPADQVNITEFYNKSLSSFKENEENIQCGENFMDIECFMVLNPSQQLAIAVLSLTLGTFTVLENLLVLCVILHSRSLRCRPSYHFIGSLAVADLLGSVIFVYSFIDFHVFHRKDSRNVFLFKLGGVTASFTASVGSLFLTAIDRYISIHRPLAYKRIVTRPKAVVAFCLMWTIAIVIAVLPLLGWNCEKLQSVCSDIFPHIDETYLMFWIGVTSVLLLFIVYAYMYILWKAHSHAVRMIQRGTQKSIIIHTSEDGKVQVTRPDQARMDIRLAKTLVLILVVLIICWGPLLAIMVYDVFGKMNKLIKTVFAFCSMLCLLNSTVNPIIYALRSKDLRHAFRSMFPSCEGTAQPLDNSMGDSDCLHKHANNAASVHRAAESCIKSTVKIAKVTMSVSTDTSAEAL

[3] = test system: MES-induced seizure; experiment: Maximal electroshock seizure (MES) model of epilepsy; format: in vivo, Mouse/ICR
Experimental: The vehicle used in this study was 2:1:17 (ethanol:Cremophor:0.9% ^w/v, NaCl). The test compounds used were cannabidiol (CBD) and cannabidivarin (CBDV). These were made to a solution at the highest concentration; these were then dissolved in ethanol before combination with Cremophor and 0.9% NaCl in the proportion described above. The CBD or CBDV were administered intraperitoneally at a volume of 10 ml/kg body weight. The SAED valproic acid (VBA) was dissolved in saline.
Animal Species/Strain: Mouse/ICR, Microbiological grade: SPF, Supplier: SLC Japan, Inc. […] Temperature: 23±2° C., Humidity: 60±10%, Light conditions: 7 AM to 7 PM for the light period, 7 PM to 7 AM for the dark period. Chow and water: Free access to CRF-1 (Oriental Yeast Co, Ltd) and tap water.
One day before each experiment, mice were weighed and randomized into several groups in each test. On the morning of the experiment day, body weight was measured in order to calculate the administration volume of each animal. Vehicle, CBD, CBDV or valproic acid sodium salt was interperitoneally administered 30 minutes before electric stimuli. Maximal electroshock seizures (MES) in mice was induced by a stimulator (UGO BASILE ECT UNIT 7801, Italia) using a current of 30 mA delivered with a pulse frequency of 100 Hz for 200 msec through earlap electrodes.
All statistical analyses were performed using SAS Software for Windows, Release 9.1 (SAS Institute Japan). The difference of the number (hindlimb extension or deaths) in each group was assessed using two-tailed Fisher's exact test.

[4] = test system: grand mal seizures; conditions: 200-300 mg of cannabidiol plus regular medication; Cunha et al (1980); cited from earlier work
[5] = test system: seizure frequency; conditions: 200-300 mg of cannabidiol per day in addition to standard antiepileptic drugs; 12 patients; cited from earlier work
[6] = test system: seizure frequency; conditions: 900-1200 mg of cannabidiol a day for 10 months; single patient; cited from earlier work
[7] = target: CB2 receptor (Homo sapiens, UniProt P34972); conditions: WO 2007/138322; cited from earlier work
CB2 receptor, sequence (P34972 whole entry): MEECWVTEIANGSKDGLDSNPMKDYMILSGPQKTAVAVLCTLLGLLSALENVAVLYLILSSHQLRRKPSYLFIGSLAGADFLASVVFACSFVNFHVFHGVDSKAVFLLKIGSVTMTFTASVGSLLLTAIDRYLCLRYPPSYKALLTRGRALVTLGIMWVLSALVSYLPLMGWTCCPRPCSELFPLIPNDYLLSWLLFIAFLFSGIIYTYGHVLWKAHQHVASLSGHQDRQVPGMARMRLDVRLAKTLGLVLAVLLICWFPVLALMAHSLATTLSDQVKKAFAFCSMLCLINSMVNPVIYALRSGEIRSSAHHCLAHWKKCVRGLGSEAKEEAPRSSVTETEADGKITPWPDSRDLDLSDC

[8] = rats; WO 2007/138322; cited from earlier work
[9] = test system: seizures; conditions: THC administered to 5 institutionalized children not responding to phenobarbital and phenytoin; cited from earlier work
[10] = cited from earlier work
[11] = test system: PTZ-induced seizures; experiment: CBDV with standard anti-epileptic drugs in the PTZ model of generalised seizures; format: in vivo, Wistar rats; conditions: valproate (varying doses) co-administered with CBDV 200 mg/kg
Experimental: As described in Example 2 above. Varying doses of the SAED's ethosuximide and valproate were tested in combination to isolated CBDV at a dose of 200 mg/kg.

[12] = test system: pilocarpine-induced seizures; experiment: CBDV with standard anti-epileptic drugs in the pilocarpine model of epilepsy; format: in vivo; conditions: CBDV 200 mg/kg with valproate at various doses
Excerpt: These two drugs are representative of two classes of anti-convulsants which have different mechanisms of action.

[13] = rats at doses greater than 200 mg/kg

With `CCCc1cc(O)c2c(c1)OC(C)(C)[C@@H]1CCC(C)=C[C@@H]21` [THCV, tetrahydrocannabivarin] the Median severity ([1]; 0.025 mg/kg THCV, 80 mg/kg PTZ) was 3.5, the “% no seizure” value ([1]; 0.025 mg/kg THCV, 80 mg/kg PTZ) was 5.9% and the Median severity ([1]; 0.25 mg/kg THCV, 80 mg/kg PTZ) was 3.5. For the same molecule, the “% no seizure” value ([1]; 0.25 mg/kg THCV, 80 mg/kg PTZ) was 33.3%, the Median severity ([1]; 2.5 mg/kg THCV, 80 mg/kg PTZ) was 3.5 and the “% no seizure” value ([1]; 2.5 mg/kg THCV, 80 mg/kg PTZ) was 18.8%. The mortality rate ([1]; high (2.5 mg/kg) pure THCV, 80 mg/kg PTZ) was 38%, the “latency to score of [5] vs vehicle” value ([1]; highest dose of THCV (2.5 mg/kg), 80 mg/kg PTZ, p=0.013) was “increased latencies, reaching a significant level” and the “latency to score of [3] vs vehicle” value ([1]; highest dose of THCV (2.5 mg/kg), 80 mg/kg PTZ, p=0.017) was “increased latencies, reaching a significant level”. For the same molecule, the “latency to first manifestation of seizure-like behaviour vs vehicle” value ([1]; highest dose of THCV (2.5 mg/kg), 80 mg/kg PTZ, p=0.02) was “delay of onset was significant”, the mortality rate ([1]; low (0.025 mg/kg) pure THCV, 80 mg/kg PTZ) was 41% and the mortality rate ([1]; medium (0.25 mg/kg) pure THCV, 80 mg/kg PTZ) was 33%. The “duration of PTZ-induced seizures in animals that survived vs vehicle” value ([1]; medium dose of THCV (0.25 mg/kg), 80 mg/kg PTZ, p=0.03) was “significantly shorter” and the “activity at the CB1 receptor” value [2] was “antagonist”.
With `C=C(C)[C@@H]1CCC(C)=C[C@H]1c1c(O)cc(CCCCC)cc1O` [CBD, cannabidiol] the animals that died ([1]; 100 mg/kg CBD IP 60 minutes before 80 mg/kg PTZ, vehicle 46.7%, p<0.001) was 6.7%, the “animals that experienced the most severe seizures (score of 5)” value ([1]; 100 mg/kg CBD IP, 80 mg/kg PTZ, vehicle 53.3%, p<0.001) was 6.7% and the “latency of seizure development” value ([1]; CBD 1, 10 and 100 mg/kg IP, 80 mg/kg PTZ) was “no significant increases”. The “Incidence of Tonic convulsion” value ([3]; 3 mg/kg i.p., Table 10.1, 5 mice per group, vehicle 5/5) was 3/5, the “Incidence of Tonic convulsion” value ([3]; 10 mg/kg i.p., Table 10.1, 5 mice per group, vehicle 5/5) was 4/5 and the “Incidence of Tonic convulsion” value ([3]; 30 mg/kg i.p., Table 10.1, 5 mice per group, vehicle 5/5) was 3/5. For the same molecule, the “Incidence of Tonic convulsion” value ([3]; 100 mg/kg i.p., Table 10.1, 5 mice per group, vehicle 5/5) was 4/5, the “inhibition of the expression of hindlimb extension with statistical significance” value ([3]; CBD 3-100 mg·kg IP) was “not able to inhibit” and the “patients who remained unchanged” value [4] was 1. The “patients who showed complete improvement” value [4] was 3, the “patients who showed minor improvement” value [4] was 2 and the “patients who showed partial improvement” value [4] was 2. The unwanted effect [4] was “mild sedation”, the “improvement in seizure frequency” value [5] was “no significant improvement” and the seizure frequency [6] was “markedly reduced”. For the same molecule, the “activity at the CB1 receptor” value [2] was “inverse agonists”, the “activity at the CB2 receptor” value [7] was “inverse agonists” and the bodyweight [8] was “reduced”.
In the case of `CCCCCc1cc(O)c2c(c1)OC(C)(C)[C@@H]1CCC(C)=C[C@@H]21` [THC, tetrahydrocannabinol], the “seizure outcome in 5 children” value [9] is given as “One became entirely free of seizures, one became almost completely free of seizures, and the other three did no worse than before”.
In the case of `CCC1(c2ccccc2)C(=O)NC(=O)NC1=O` [phenobarbital], the “motor and other side effects” value ([10]; rat models of epilepsy at doses greater than 250 mg/kg) is given as “notable motor and other side effects (including sedation)”.
For `CCC1(C)CC(=O)NC1=O` (stereo not drawn) [ethosuximide], the “motor and other side effects” value [10, 13] is given as “notable motor and other side effects (including sedation)”.
In the case of `CCCC(CCC)C(=O)O` [Valproic acid, valproic acid, reference compound], the “mortality (independent effect when co-administered)” value [11] is reported as “significant decreases”, the “onset latency (independent effect when co-administered)” value [11] is reported as “significant decreases” and the “seizure severity (independent effect when co-administered)” value [11] is reported as “significant decreases”. The “mortality (independent effect)” value [12] was “only CBDV and not valproate independently caused a significant decrease”, the “seizure severity (independent effect)” value [12] was “independent and positive effects” and the “Incidence of Tonic convulsion” value ([3]; 200 mg/kg i.p., Table 10.2, 10 mice per group, vehicle 9/10) was 5/10. For the same molecule, the “Incidence of Tonic convulsion” value ([3]; 350 mg/kg i.p., Table 10.1, 5 mice per group, vehicle 5/5) was 0/5**, the “Incidence of Tonic convulsion” value ([3]; 350 mg/kg i.p., Table 10.2, 10 mice per group, vehicle 9/10) was 1/10** and the “hindlimb extension vs vehicle group” value ([3]; 350 mg/kg valproic acid, statistically significant) was “blocked”. The “motor and other side effects” value [10, 13] was “notable motor and other side effects (including sedation)”.
